From patent US4281121A, “1,3,4-Thiadiazole-2-carboxylic acid derivatives, process for making the same and fungicidal and nematocidal compositions containing same” (Schering Aktiengesellschaft, priority 1978, dated 1981)
Read-outs that look alike come from different tables or passages of the source.

Tests used:
Pythium ultimum = experiment: Threshold concentration test for use of the compounds against Pythium ultimum (infested soil, garden peas); assay type: in vivo; set-up: key to root evaluation (1-4): 4: white roots without fungous necrosis; 3: white roots, minor fungous necrosis; 2: brown roots, already more pronounced fungous necrosis; 1: heavy fungous necrosis, roots rotted; conditions: for root evaluation (1-4): 3 weeks; for number of sound peas: 20 grains per dish, 3 weeks at 20-24° C.
Summary of the method: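 Garden pea seeds, 20 per dish, went straight into Pythium ultimum-infested soil into which 20% pulverulent formulations had been uniformly blended. Sound plants counted and roots rated 1–4 after three weeks of hothouse growth at 20–24 °C.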

Botrytis cinerea [1] = experiment: Prophylactic leaf treatment of tomato plants against Botrytis cinerea; assay type: in vivo; conditions: concentration of 0.025 of the active agent (unit not given)
Plasmopara viticola = experiment: Prophylactic leaf treatment of grapevines in the hothouse against Plasmopara viticola; assay type: in vivo
Summary of the method: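 Activity derived from average percentage of leaf surface infested per treatment. Plants with 5–8 leaves received preventive spray (20% spray powder formulation), then undersides inoculated with ~20,000 sporangia/ml; held at 22–24 °C with full humidity, reduced to 30–70% for 3–4 days, then saturated one day.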

Helminthosporium gram = conditions: about 5 weeks
Description: Treatment of barley seeds infested with Helminthosporium gram
After emergence, the plants were subjected to illumination for 12 hours per day. After about 5 weeks the infested plants were counted and the total number of plants for each test were also counted. The active agents tested were used as pulverulent compositions.

Tilletia caries = experiment: Treatment of oat seeds infested with Tilletia caries (spore germination); assay type: in vivo
[2] = test system: Helminthosporium gramineum; experiment: Seed treatment in open field tests for infestation by Helminthosporium gramineum (barley); assay type: in vivo; conditions: summer barley; 50 g active agent/100 kg barley; about 3 months
Description: Seed treatment in open field tests for infestation by Helminthosporium gramineum
The active agents were used in the form of pulverulent compositions. After about 8 months in case of winter barley and after about 3 months in case of summer barley the infested plants were counted and the activity was calculated by the formula [formula]

Piricularia oryzae = assay type: in vivo; conditions: concentration of active agent 0.1 (percentages); 5 days
Venturia inaequalis = experiment: Prophylactic leaf treatment of apples in open field test against Venturia inaequalis; assay type: in vivo; conditions: 3 weeks
Penicillium digitatum = experiment: Inhibition of fungus in a nutrient solution: Penicillium digitatum; assay type: cell-based; conditions: 6 days at 21-23° C.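 Also: 0 means no fungus growth and higher grades mean more surface covered.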
Fusarium avenaceum [3] = experiment: Inhibition of fungus in a nutrient solution: Fusarium avenaceum; assay type: cell-based; conditions: 6 days at 21-23° C.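 Also: 0 means no fungus growth and higher grades mean more surface covered.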
Description: Inhibition of fungus in a nutrient solution
20 ml of a nutrient solution of grape juice and water (1:1) were filled into a glass vial of a 100 ml capacity and were mixed with the pulverulent active agents which appear from the subsequent table. Thereafter, the solution was inoculated with conidia (spores) of the test fungi.
After an incubation time of 6 days at 21° to 23° C. the fungus development on the surface of the nutrient solution was evaluated. The test fungi used were the following: Penicillium digitatum, Botrytis cinerea, Alternaria solani, Fusarium avenaceum.
The evaluation was carried out at a scale from 0 to 5 as follows: […]

Alternaria solani = experiment: Inhibition of fungus in a nutrient solution: Alternaria solani; assay type: cell-based; conditions: 6 days at 21-23° C.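 Also: 0 means no fungus growth and higher grades mean more surface covered.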
Botrytis cinerea [4] = experiment: Inhibition of fungus in a nutrient solution: Botrytis cinerea; assay type: cell-based; conditions: 6 days at 21-23° C.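 Also: 0 means no fungus growth and higher grades mean more surface covered.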
Fusarium avenaceum [5] = experiment: Threshold concentration test in case of Fusarium avenaceum (infested soil, garden peas); assay type: in vivo; conditions: for number of sound peas: 20 grains per dish, 18 days at 20-24° C.; for root evaluation (1-4): 18 days
Summary of the method: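 Soil heavily infested with Fusarium avenaceum was mixed uniformly with a 20% powder formulation of active agent, then sown immediately with 20 garden pea seeds ('Wunder von Kelvedon') per dish. After 18 days in a greenhouse at 20° to 24° C., sound plants were counted and roots scored on a 1–4 scale.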

[6] = concentration of active agent 0.001 (unit not given)
[7] = concentration of active agent 0.005 (unit not given)
[8] = concentration of active agent 0.025 (unit not given)
[9] = concentration of active agent 0.005 (in gram)
[10] = concentration of active agent 0.025 (in gram)

| Compound | root evaluation (1-4) (Pythium ultimum; 20 mg/l soil) | number of sound peas (Pythium ultimum; 20 mg/l soil) | root evaluation (1-4) (Pythium ultimum; 40 mg/l soil) | number of sound peas (Pythium ultimum; 40 mg/l soil) | root evaluation (1-4) (Pythium ultimum; 80 mg/l soil) | number of sound peas (Pythium ultimum; 80 mg/l soil) | % activity (Botrytis cinerea [1]) [%] | % activity (Plasmopara viticola; [6]) [%] | % activity (Plasmopara viticola; [7]) [%] | % activity (Plasmopara viticola; [8]) [%] | % activity (Helminthosporium gram; 50 g active agent per 100 kg) [%] | % activity (Tilletia caries; 10 g active agent per 100 kg) [%] | % activity (Tilletia caries; 20 g active agent per 100 kg) [%] | % activity (Tilletia caries; 50 g active agent per 100 kg) [%] | % activity [2] [%] | % activity (Piricularia oryzae) [%] | other results |
| --- | --- | --- | --- | --- | --- | --- | --- | --- | --- | --- | --- | --- | --- | --- | --- | --- | --- |
| CCS(=O)(=O)c1nnc(C(=O)N2CCCC2)s1 [5-ethylsulfonyl-1,3,4-thiadiazole-2-carboxylic acid-N,N-tetramethylene-amide] | 2 | 14 | 4 | 20 | 4 | 20 | 75 | 91 | 99 | 100 | 99 | 100 | 100 | 100 | 100 | – | % activity (Helminthosporium gram; 10 g active agent per 100 kg): 98%; % activity (Helminthosporium gram; 20 g active agent per 100 kg): 100% |
| CCNC(=O)c1nnc([S+](C)[O-])s1 (stereo not drawn) [5-methylsulfinyl-1,3,4-thiadiazole-2-carboxylic acid-ethylamide] | 2 | 18 | 4 | 18 | 4 | 19 | 75 | – | – | 96 | 100 | – | 100 | 100 | – | 90 | % activity (Helminthosporium gram; 10 g active agent per 100 kg): 98%; % activity (Helminthosporium gram; 20 g active agent per 100 kg): 99% |
| CCCCNC(=O)c1nnc(S(C)(=O)=O)s1 [5-methylsulfonyl-1,3,4-thiadiazole-2-carboxylic acid-butylamide] | 2 | 14 | 4 | 15 | 4 | 16 | 76 | 83 | 99.1 | – | 90 | 99.2 | 100 | 100 | 99.3 | 90 | % activity (Venturia inaequalis; [9]): 94%; % activity (Venturia inaequalis; [10]): 99% |
| COC(=O)c1nnc(S(C)(=O)=O)s1 [5-methylsulfonyl-1,3,4-thiadiazole-2-carboxylic acid-methylester] | – | – | – | – | – | – | – | – | – | – | – | – | – | – | – | – | fungus development on the surface of the nutrient solution (0-5) (Penicillium digitatum; 0.002%): 1; fungus development on the surface of the nutrient solution (0-5) (Penicillium digitatum; 0.004%): 0; fungus development on the surface of the nutrient solution (0-5) (Fusarium avenaceum [3]; 0.002%): 0; fungus development on the surface of the nutrient solution (0-5) (Fusarium avenaceum [3]; 0.004%): 0; fungus development on the surface of the nutrient solution (0-5) (Alternaria solani; 0.002%): 1; fungus development on the surface of the nutrient solution (0-5) (Alternaria solani; 0.004%): 0; fungus development on the surface of the nutrient solution (0-5) (Botrytis cinerea [4]; 0.002%): 1; fungus development on the surface of the nutrient solution (0-5) (Botrytis cinerea [4]; 0.004%): 0 |
| CCCNC(=O)c1nnc(S(C)(=O)=O)s1 [5-methylsulfonyl-1,3,4-thiadiazole-2-carboxylic acid-propylamide] | 4 | 15 | 4 | 15 | 4 | 15 | 76 | – | 82 | 95 | 93 | 99.5 | 100 | 100 | 100 | 90 | % activity (Venturia inaequalis; [9]): 98%; % activity (Venturia inaequalis; [10]): 99.7% |
| CCCCCS(=O)(=O)c1nnc(C#N)s1 [5-pentylsulfonyl-1,3,4-thiadiazole-2-carbonitrile] | – | – | – | – | – | – | 86 | – | – | 90 | – | – | – | 90 | – | – | number of sound peas (Fusarium avenaceum [5]; 25 mg/l soil): 20; root evaluation (1-4) (Fusarium avenaceum [5]; 25 mg/l soil): 4; number of sound peas (Fusarium avenaceum [5]; 50 mg/l soil): 20; root evaluation (1-4) (Fusarium avenaceum [5]; 50 mg/l soil): 4; number of sound peas (Fusarium avenaceum [5]; 100 mg/l soil): 19; root evaluation (1-4) (Fusarium avenaceum [5]; 100 mg/l soil): 4 |
| CCC[S+]([O-])c1nnc(C(=O)NC(C)CC)s1 (stereo not drawn) [5-propylsulfinyl-1,3,4-thiadiazole-2-carboxylic acid-sec.-butylamide] | – | – | – | – | – | – | 80 | 86 | 92 | 92 | 94 | – | 100 | 100 | – | – | number of sound peas (Fusarium avenaceum [5]; 25 mg/l soil): 9; root evaluation (1-4) (Fusarium avenaceum [5]; 25 mg/l soil): 1; number of sound peas (Fusarium avenaceum [5]; 50 mg/l soil): 17; root evaluation (1-4) (Fusarium avenaceum [5]; 50 mg/l soil): 4; number of sound peas (Fusarium avenaceum [5]; 100 mg/l soil): 17; root evaluation (1-4) (Fusarium avenaceum [5]; 100 mg/l soil): 4 |
| CCCCCCNC(=O)c1nnc(S(=O)(=O)CCC)s1 [5-propylsulfonyl-1,3,4-thiadiazole-2-carboxylic acid-hexylamide] | – | – | – | – | – | – | 78 | 88 | 98 | 100 | – | – | 100 | 100 | – | 95 | – |
| O=C1C2CC=CCC2C(=O)N1SC(Cl)(Cl)Cl (stereo not drawn) [N-trichloromethylmercapto-tetrahydro-phthalimide, reference compound] | 1 | 1 | 1 | 2 | 2 | 8 | – | – | – | – | – | – | – | – | – | – | fungus development on the surface of the nutrient solution (0-5) (Penicillium digitatum; 0.002%): 4 (30 to 60% of the surface covered by the fungus turf); fungus development on the surface of the nutrient solution (0-5) (Penicillium digitatum; 0.004%): 4 (30 to 60% of the surface covered by the fungus turf); fungus development on the surface of the nutrient solution (0-5) (Alternaria solani; 0.002%): 4 (30 to 60% of the surface covered by the fungus turf); fungus development on the surface of the nutrient solution (0-5) (Alternaria solani; 0.004%): 4 (30 to 60% of the surface covered by the fungus turf); fungus development on the surface of the nutrient solution (0-5) (Botrytis cinerea [4]; 0.002%): 4 (30 to 60% of the surface covered by the fungus turf); fungus development on the surface of the nutrient solution (0-5) (Botrytis cinerea [4]; 0.004%): 4 (30 to 60% of the surface covered by the fungus turf) |
